Results on three molecules are retold here after article PMC11523249, “Expanding the antiprotozoal activity and the mechanism of action of n-butyl and iso-butyl ester of quinoxaline-1,4-di-N-oxide derivatives against Giardia lamblia, Trichomonas vaginalis, and Entamoeba histolytica. An in vitro and in silico approach” (Journal of Enzyme Inhibition and Medicinal Chemistry, 2024).

The term IC50 denotes the concentration at which inhibition is half-maximal. What is called CC50 is the concentration giving 50% cytotoxicity.

Where only a bound is given, the exact number is not on record here.

Data set [1] addresses T1, recombinant E. histolytica thioredoxin reductase (EhTRXR) (Entamoeba histolytica, UniProt C4LW95).
T1 construct: His-tag (pET28a) (N); made in house; host or cells: E. coli BL21 (DE3)
T1 sequence (C4LW95 1-314): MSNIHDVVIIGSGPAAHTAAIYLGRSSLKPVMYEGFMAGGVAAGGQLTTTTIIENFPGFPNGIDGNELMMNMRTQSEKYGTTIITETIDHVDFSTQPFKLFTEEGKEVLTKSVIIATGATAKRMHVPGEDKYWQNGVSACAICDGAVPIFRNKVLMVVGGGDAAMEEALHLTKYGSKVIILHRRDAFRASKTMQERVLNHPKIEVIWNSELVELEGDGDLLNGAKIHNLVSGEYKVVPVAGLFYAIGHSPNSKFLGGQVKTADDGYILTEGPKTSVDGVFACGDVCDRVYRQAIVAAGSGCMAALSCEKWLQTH
Details: method as in earlier work. As to conditions: ref 34 (Sóto-Sánchez et al. 2020); cited from earlier work.

Data set [2] can be described thus: Cytotoxic evaluation, MTT colorimetric assay. As to conditions: mouse, J774.2 macrophage cell line, murine macrophages J774.2, read-out: Cytotoxicity (Macrophages J774.2) (CC50). Format: cell-based. The method, then:
The murine macrophage cell line J774.2 was maintained in culture flasks with RPMI 1640 medium supplemented with 10% FBS, and 100 U/mL antibiotic-antifungal mixture (Gibco). Cells were incubated at 37 °C with 5% CO2 and humidity. Murine macrophage cell line J774.2 is maintained at Laboratorio de Estudios Epidemiológicos, Clínicos, Diseños Experimentales e Investigación, Facultad de Ciencias Químicas, Universidad Autónoma “Benito Juárez” de Oaxaca. Macrophages were washed and viability was assessed by the MTT colorimetric assay. In a 96-well microplate, 1 × 10^5 macrophages were added per well and a dose-response assay was performed. Compounds were evaluated using serial dilutions to determine half-maximal cytotoxic concentration (CC50) values in triplicate considering 0.2% DMSO as negative control.

The next data set concerns G. lamblia WB strain. Put plainly: In vitro susceptibility assay, G. lamblia trophozoites. Format: cell-based, Giardia lamblia. The following applies: Giardia duodenalis, 48 h, read-out: G. lamblia (IC50 nM), trophozoites, 48 h at 37 °C, subcultured 48 h, Probit analysis. How it is done: (§1) G. lamblia WB strain, T. vaginalis GT3 strain, and E. histolytica strain HM1-IMSS were used in all experiments, all parasitic strains were obtained from the Unidad de Investigación Médica en Enfermedades Infecciosas y Parasitarias, Hospital de Pediatría, Instituto Mexicano del Seguro Social. In vitro susceptibility assays to determine IC50 values were performed using a method previously described. For this, 4 × 10^4 G. lamblia; 6 × 10^3 E. histolytica, or 4 × 10^4 T. vaginalis trophozoites were incubated for 48 h at 37 °C with different concentrations of quinoxaline derivatives T-137 to T-170 (0.5 ng/mL to 10 μg/mL) using dimethyl sulfoxide (DMSO) (0.05%) as solvent. Metronidazole and albendazole were used as positive controls, and parasites in the medium without drugs containing DMSO (0.05%) were included as negative controls. At the end of the incubation period, trophozoites were washed and subcultured for another 48 h in a fresh medium without drugs. Then, trophozoites were counted with a haemocytometer and the IC50 was calculated by Probit analysis. Experiments were carried out in triplicate and repeated at least twice.

In another data set the test system is T. vaginalis GT3 strain. Kind of data set: In vitro susceptibility assay, T. vaginalis trophozoites. The following applies: Trichomonas vaginalis, GT3, 48 h, read-out: T. vaginalis (IC50 nM), trophozoites, 48 h at 37 °C, subcultured 48 h, Probit analysis. Format: cell-based, Trichomonas vaginalis. How it is done:
as §1

The test system of data set [3] is E. histolytica strain HM1-IMSS. Put plainly: In vitro susceptibility assay, E. histolytica trophozoites. The following applies: Entamoeba histolytica, 48 h, read-out: E. histolytica (IC50 nM), trophozoites, 48 h at 37 °C, subcultured 48 h, Probit analysis. It is filed as cell-based, Entamoeba histolytica. The method, then: as §1

With `CCOC(=O)c1c(C(F)(F)F)[n+]([O-])c2ccc(C(=O)OC(C)C)cc2[n+]1[O-]` [Compound T-116], the IC50 in data set [1] is 28000 nM.
As for `CC(=O)c1c(-c2ccccc2)[n+]([O-])c2ccc(C(=O)OCC(C)C)cc2[n+]1[O-]` [Compound T-168], in data set [2], the CC50 worked out at 28500 ± 1690 nM. Also, the IC50 was determined as 39.5 ± 2.63 nM with G. lamblia WB strain, 150 ± 14.5 nM with T. vaginalis GT3 strain and 50 ± 2.63 nM in data set [3].
For `CC(=O)c1c(Nc2ccc(C)cc2C)[n+]([O-])c2ccc(C(=O)OCC(C)C)cc2[n+]1[O-]` [Compound T-170], in that order: above 200000 nM, 109 ± 3.55 nM, 130 ± 8.27 nM and 33.1 ± 2.36 nM.
